We go through twelve compounds from patent US20200037600A1, “MESOIONIC IMIDAZOPYRIDINES AS INSECTICIDES” (Bayer Aktiengesellschaft, priority 2017, published 2020).

In one data set the test system is Diabrotica balteata. Nature of the data set: Diabrotica balteata spray test. The class given is in vivo. The note with it: application rate 160 μg/well, beetle larvae on germinated wheat grains, after 7 days; for pest or weed control at 160 µg/disc, 160 µg/well: Diabrotica balteata, 168 h, read-out: efficacy. The method, then: Diabrotica balteata—Spray Test
(§1) Solvent: 78 parts by weight of acetone • • 1.5 parts by weight of dimethylformamide
(§2) Emulsifier: alkylaryl polyglycol ether
(§3) To produce a suitable active compound formulation, 1 part by weight of active compound is dissolved with the specified parts by weight of solvent and made up to the desired concentration with water containing an emulsifier concentration of 1000 ppm. To produce further test concentrations, the formulation is diluted with emulsifier-containing water.
Pre-swollen wheat grains (Triticum aestivum) are incubated in a multiwell plate filled with agar and a little water for one day (5 seed grains per well). The germinated wheat grains are sprayed with an active compound preparation of the desired concentration. Subsequently, each cavity is infected with 10-20 beetle larvae of Diabrotica balteata.
After 7 days, the efficacy in % is determined. 100% means that all maize plants have grown as in the untreated, uninfected control; 0% means that no maize plant has grown.

Another data set concerns Musca domestica. Nature of the data set: Musca domestica test. It counts as in vivo. The note with it: application rate 100 ppm; adult houseflies; after 2 days. On the procedure:
(§4) Solvent: dimethyl sulfoxide
(§5) To produce a suitable active compound formulation, 10 mg of active compound are mixed with 0.5 ml of dimethyl sulfoxide, and the concentrate is diluted with water to the desired concentration.
Vessels containing a sponge treated with sugar solution and the active compound formulation of the desired concentration are populated with 10 adult houseflies (Musca domestica).
After 2 days, the kill in % is determined. 100% means that all of the flies have been killed; 0% means that none of the flies have been killed.

Data set [1] relates to Ctenocephalides felis. The data set is described as follows: Ctenocephalides felis oral test. The class given is in vivo. To be noted: application rate 100 ppm in citrated cattle blood; adult cat fleas; after 2 days. The method, then: Ctenocephalides felis—Oral Test
as §4
To produce a suitable active compound formulation, 10 mg of active compound are mixed with 0.5 ml of dimethyl sulfoxide. Dilution with citrated cattle blood gives the desired concentration.
About 20 unfed adult cat fleas (Ctenocephalides felis) are placed into a chamber which is closed at the top and bottom with gauze. A metal cylinder whose bottom end is closed with parafilm is placed onto the chamber. The cylinder contains the blood/active compound formulation, which can be imbibed by the fleas through the parafilm membrane.
After 2 days, the kill in % is determined. 100% means that all of the fleas have been killed; 0% means that none of the fleas have been killed.

The subject of data set [2] is Myzus persicae. The data set is described as follows: Myzus persicae spray test. The class given is in vivo. To be noted: application rate 500 g/ha, Chinese cabbage leaf discs, after 5 days; for pest or weed control at 500 g/ha: Myzus persicae, foliar, 120 h, read-out: efficacy. On the procedure: Myzus persicae—Spray Test
as §1, §2, §3
Discs of Chinese cabbage leaves (Brassica pekinensis) infested by all stages of the green peach aphid (Myzus persicae) are sprayed with an active compound formulation of the desired concentration.
(§6) After 5 days, the efficacy in % is determined. 100% means that all the aphids have been killed; 0% means that no aphids have been killed.

Data set [3] concerns Ctenocephalides felis. Nature of the data set: Ctenocephalides felis in vitro contact test with adult cat fleas. To be noted: application rate 5 μg/cm^2 (=500 g/ha), after 48 h. The class given is in vivo. On the procedure: Ctenocephalides felis—In Vitro Contact Tests with Adult Cat Fleas
(§7) For the coating of the test tubes, 9 mg of active compound are first dissolved in 1 ml of acetone p.a. and then diluted to the desired concentration with acetone p.a. 250 μl of the solution are distributed homogeneously on the inner walls and the base of a 25 ml glass tube by turning and rocking on an orbital shaker (rocking rotation at 30 rpm for 2 h). With 900 ppm of active compound solution and internal surface area 44.7 cm^2, given homogeneous distribution, an area-based dose of 5 μg/cm^2 is achieved.
After the solvent has evaporated off, the tubes are populated with 5-10 adult cat fleas (Ctenocephalides felis), sealed with a perforated plastic lid and incubated in a horizontal position at room temperature and ambient humidity. After 48 h, efficacy is determined. To this end, the tubes are stood upright and the fleas are knocked to the base of the tube. Fleas which remain motionless at the base or move in an uncoordinated manner are considered to be dead or moribund.
100% efficacy means that all the fleas were dead or moribund. 0% efficacy means that no fleas were harmed.

Data set [4] deals with Myzus persicae. Nature of the data set: Myzus persicae oral test. It counts as in vivo. To be noted: after 5 days; for pest or weed control at 4 ppm: Myzus persicae, po, 120 h, read-out: efficacy. The method, then:
Solvent: 100 parts by weight of acetone
To produce a suitable active compound formulation, 1 part by weight of active compound is dissolved with the stated parts by weight of solvent and made up to the desired concentration with water.
50 μl of the active compound formulation are transferred into microtitre plates and made up to a final volume of 200 μl with 150 μl of IPL41 insect medium (33%+15% sugar). Subsequently, the plates are sealed with parafilm, which a mixed population of green peach aphids (Myzus persicae) within a second microtitre plate is able to puncture and imbibe the solution.
as §6

The next data set concerns Lucilia cuprina. The data set is described as follows: Lucilia cuprina test. The class given is in vivo. The note with it: application rate 100 ppm; L1 larvae; after 2 days. The method, then: as §4, §5
About 20 L1 larvae of the Australian sheep blowfly (Lucilia cuprina) are transferred into a test vessel containing minced horsemeat and the active compound formulation of the desired concentration.
After 2 days, the kill in % is determined. 100% means that all the larvae have been killed; 0% means that no larvae have been killed.

The subject of another data set is Spodoptera frugiperda. The data set is described as follows: Spodoptera frugiperda spray test. The class given is in vivo. The note with it: application rate 500 g/ha; caterpillars on maize leaf discs; after 7 days. The method, then: Spodoptera frugiperda—Spray Test
(§8) Solvent: 78.0 parts by weight of acetone • • 1.5 parts by weight of dimethylformamide
as §2, §3
Leaf discs of maize (Zea mays) are sprayed with an active compound formulation of the desired concentration and, after drying, populated with caterpillars of the fall armyworm (Spodoptera frugiperda).
After 7 days, the efficacy in % is determined. 100% means that all the caterpillars have been killed; 0% means that no caterpillar has been killed.

The subject of the next data set is Phaedon cochleariae. Nature of the data set: Phaedon cochleariae spray test. To be noted: foliar, 168 h, application rate 500 g/ha, larvae on Chinese cabbage leaf discs, after 7 days, read-out: efficacy. The class given is in vivo. On the procedure: Phaedon cochleariae—Spray Test
as §8, §2, §3
Discs of Chinese cabbage leaves (Brassica pekinensis) are sprayed with an active compound formulation of the desired concentration and, after drying, populated with larvae of the mustard beetle (Phaedon cochleariae).
After 7 days, the efficacy in % is determined. 100% means that all the beetle larvae have been killed; 0% means that no beetle larvae have been killed.

Data set [5] can be described thus: log P by HPLC (EEC directive 79/831 Annex V.A8). The class given is physicochemical. On the procedure: The log P values reported in the tables and preparation examples above were determined in accordance with EEC directive 79/831 Annex V.A8 by HPLC (High Performance Liquid Chromatography) using a reversed-phase column (C18). Temperature 43° C. The calibration is effected with unbranched alkan-2-ones (having 3 to 16 carbon atoms), for which the log P values are known.

Another data set relates to Rhipicephalus sanguineus. Nature of the data set: Rhipicephalus sanguineus in vitro contact test with adults of the brown dog tick. The class given is in vivo. To be noted: application rate 5 μg/cm^2 (=500 g/ha), adult dog ticks, after 48 h. The method, then:
Rhipicephalus sanguineus—In Vitro Contact Tests with Adults of the Brown Dog Tick
as §7
After the solvent has evaporated off, the tubes are populated with 5-10 adult dog ticks (Rhipicephalus sanguineus), sealed with a perforated plastic lid and incubated in the dark in a horizontal position at room temperature and ambient humidity. After 48 h, efficacy is determined. To this end, the ticks are knocked to the base of the tube and, incubated on a heating plate at 45-50° C. for a maximum of 5 minutes. Ticks which remain motionless at the base or move in such an uncoordinated manner that they cannot purposely escape the heat by climbing upward are considered to be dead or moribund.
100% efficacy means that all the ticks were dead or moribund. 0% efficacy means that no ticks were harmed.

The next data set concerns Tetranychus urticae. The data set is described as follows: Tetranychus urticae spray test, OP-resistant. It counts as in vivo. To be noted: application rate 500 g/ha, bean leaf discs, after 6 days. On the procedure:
Tetranychus urticae—Spray Test, OP-Resistant
as §8, §2, §3
Discs of bean leaves (Phaseolus vulgaris) infested by all stages of the red spider mite (Tetranychus urticae) are sprayed with an active compound formulation of the desired concentration.
After 6 days, the efficacy in % is determined. 100% means that all the spider mites have been killed; 0% means that no spider mites have been killed.

With `O=C(c1c([O-])[n+]2ccccc2n1Cc1cnc(Cl)s1)C(F)(F)F` [Example I-007], the efficacy in the data set on Diabrotica balteata, in the data set on Myzus persicae [2], in the data set on Ctenocephalides felis [3], with Myzus persicae [4] (application rate 4 ppm) and in the data set with Myzus persicae [4] (application rate 20 ppm) was 100% in each case. Also, the “efficacy (kill in %)” value stood at 90% in the data set on Musca domestica, 95% in the data set with Ctenocephalides felis [1] and 85% with Lucilia cuprina.

Take `O=C(c1c([O-])[n+]2ccccc2n1Cc1cnc(Cl)s1)C(F)(F)Cl` [Example I-019]: the efficacy in the data set on Spodoptera frugiperda, in the data set on Diabrotica balteata, in the data set on Myzus persicae [2], in the data set with Ctenocephalides felis [3] and in the data set with Myzus persicae [4] (application rate 4 ppm) was 100% throughout. Besides, the “efficacy (kill in %)” value with Musca domestica stood at 80%; in the data set on Ctenocephalides felis [1], 95%; in the data set with Lucilia cuprina, 95%.

The chromatographic logP is a lipophilicity value derived from retention on a column. With `Cc1ccc[n+]2c([O-])c(C(=O)C(F)(F)F)n(Cc3cnc(Cl)s3)c12` [Example I-024, 1-[(2-Chlorothiazol-5-yl)methyl]-8-methyl-2-(2,2,2-trifluoroacetyl)imidazo[1,2-a]pyridin-4-ium-3-olate], the efficacy is on record as 83% in the data set with Spodoptera frugiperda, 100% in the data set with Ctenocephalides felis [3] and 100% with Rhipicephalus sanguineus. The pest or weed control at 500 g/ha in the data set on Phaedon cochleariae is 100%; in the data set with Myzus persicae [2] it was 90%. In addition, the pest or weed control at 160 µg/disc, 160 µg/well in the data set with Diabrotica balteata was 100%. Besides, the results for the “efficacy (kill in %)” value with Ctenocephalides felis [1] and with Lucilia cuprina were 90% and 100%, respectively. Further, in [5], the chromatographic logP turned out to be 2.07. In addition, the pest or weed control at 4 ppm with Myzus persicae [4] (application rate 4 ppm) was found to be 100%.

On to `CCOC(=O)C(=O)c1c([O-])[n+]2cccc(C)c2n1Cc1cnc(Cl)s1` [Example I-033], for which the pest or weed control at 160 µg/disc, 160 µg/well with Diabrotica balteata is 100%. For the same compound, the “efficacy (kill in %)” value is recorded as 100% in the data set on Musca domestica and 95% in the data set on Ctenocephalides felis [1]. The pest or weed control at 500 g/ha in the data set with Myzus persicae [2] was determined as 90%. The compound further yielded an efficacy with Ctenocephalides felis [3] of 100%. Also, in the data set with Myzus persicae [4] (application rate 4 ppm), the pest or weed control at 4 ppm is 100%.

Turning to `CCC(C)OC(=O)C(=O)c1c([O-])[n+]2ccccc2n1Cc1cnc(Cl)s1` (centres unmarked) [Example I-037], the efficacy with Tetranychus urticae came out at 90%; in the data set on Diabrotica balteata it was 100%; in the data set with Myzus persicae [2], 100%; with Myzus persicae [4] (application rate 4 ppm), 100%. The “efficacy (kill in %)” value is listed as 100% with Musca domestica and 95% with Lucilia cuprina.

With `CC(C)OC(=O)C(=O)c1c([O-])[n+]2ccccc2n1Cc1cnc(Cl)s1` [Example I-038], the “efficacy (kill in %)” value with Musca domestica is 100%; in the data set with Ctenocephalides felis [1], 80%; with Lucilia cuprina, 90%. In addition, the efficacy in the data set on Myzus persicae [2] was 90%; with Myzus persicae [4] (application rate 4 ppm) it was 100%; in the data set on Rhipicephalus sanguineus it was 100%; in the data set on Rhipicephalus sanguineus (listed as 1-038), 80%.

On to `O=C(OCC1CCC1)C(=O)c1c([O-])[n+]2ccccc2n1Cc1cnc(Cl)s1` [Example I-039], for which the efficacy in the data set on Tetranychus urticae stood at 90%; with Myzus persicae [2], 90%; in the data set on Myzus persicae [4] (application rate 4 ppm), 100%.

With `CCN(CC)C(=O)C(=O)c1c([O-])[n+]2ccccc2n1Cc1cnc(Cl)s1` [Example I-040], the efficacy with Tetranychus urticae is 100%; in the data set on Myzus persicae [2] it was 90%.

In the case of `CN(C)C(=O)C(=O)c1c([O-])[n+]2ccccc2n1Cc1cnc(Cl)s1` [Example I-041], in the data set on Tetranychus urticae, the efficacy was 90%.

`Cc1ccc[n+]2c([O-])c(C(=O)C(=O)OCC3CCC3)n(Cc3cnc(Cl)s3)c12` [Example I-046] returned an efficacy in the data set on Spodoptera frugiperda of 83%. Besides, the pest or weed control at 500 g/ha stood at 100% with Phaedon cochleariae and 90% in the data set with Myzus persicae [2]. Also, in the data set with Diabrotica balteata, the pest or weed control at 160 µg/disc, 160 µg/well turned out to be 100%. Also, the pest or weed control at 4 ppm in the data set on Myzus persicae [4] (application rate 4 ppm) came out at 100%.

As to `COCCOC(=O)C(=O)c1c([O-])[n+]2ccccc2n1Cc1cnc(Cl)s1` [Example I-050], the efficacy with Tetranychus urticae came out at 90%; in the data set with Myzus persicae [2], 100%; with Myzus persicae [4] (application rate 4 ppm) it was 100%.

In the case of `Cc1ccc[n+]2c([O-])c(C(=O)C(F)(F)C(F)F)n(Cc3cnc(Cl)s3)c12` [Example I-063], the efficacy in the data set with Spodoptera frugiperda was 100%. The pest or weed control at 500 g/ha with Phaedon cochleariae was determined as 100%. In addition, the pest or weed control at 4 ppm in the data set on Myzus persicae [4] (application rate 4 ppm) is 100%.
